Laboratory results as given in US10822348B2, “Inhibitors of Bruton's tyrosine kinase and methods of their use” (JANSSEN PHARMACEUTICA NV, priority 2015, dated 2020).

Target: unphosphorylated-BTK kinase domain (UP-BTK), GST-tagged human BTK (389-659aa) (Homo sapiens (Human), UniProt Q06187)
Test: BTK kinase Lanthascreen binding assay
Protocol: BTK Kinase Lanthascreen Binding Assay:
A BTK kinase lanthascreen binding assay monitors compound binding to unphosphorylated-BTK kinase domain (UP-BTK), by competing with a fluorescent labeled tracer. […] Data were analyzed using Xlfit™ version 5.3 from ID Business Solutions (Guildford), Microsoft Excel add-in. pIC50 refers to the negative log of the IC50 in molar.

[1] = unphosphorylated-BTK kinase domain, 60 minutes incubation, pIC50 = negative log of the IC50 in molar
[2] = negative log of the IC50 in molar, 60 minutes incubation with 50 nM Tracer 236

Sequence of unphosphorylated-BTK kinase domain (UP-BTK), GST-tagged human BTK (389-659aa) (Q06187 389-659): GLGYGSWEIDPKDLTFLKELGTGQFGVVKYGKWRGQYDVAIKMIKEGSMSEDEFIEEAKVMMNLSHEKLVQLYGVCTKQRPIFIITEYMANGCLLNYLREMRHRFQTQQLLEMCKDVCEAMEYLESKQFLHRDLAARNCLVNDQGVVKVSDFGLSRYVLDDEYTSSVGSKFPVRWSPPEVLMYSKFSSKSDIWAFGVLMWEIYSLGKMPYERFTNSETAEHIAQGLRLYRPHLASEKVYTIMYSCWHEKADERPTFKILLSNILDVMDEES

| SMILES | BTK_I_binding pIC50 [1] | BTK_I_binding pIC50 [2] | further results |
| --- | --- | --- | --- |
| C=CC(=O)N1CC[C@H](NC(=O)c2sc3nccc4c3c2NC(=O)N4c2ccc(Oc3ccccc3)cc2C)C1 (single isomer, unassigned) [Example 518, (S)—N-(1-Acryloylpyrrolidin-3-yl)-5-(*S)-(2-methyl-4-phenoxyphenyl)-4-oxo-4,5-dihydro-3H-1-thia-3,5,8-triazaacenaphthylene-2-carboxamide] | 7.6 |  |  |
| C=CC(=O)N[C@@H]1COC[C@@H]1NC(=O)c1sc2nccc3c2c1NC(=O)N3c1cnc(Oc2ccccc2)cc1C (stereo in doubt) [Example 752, N-((*3R,*4S)-4-Acrylamidotetrahydrofuran-3-yl)-5-(*S)-(4-methyl-6-phenoxypyridin-3-yl)-4-oxo-4,5-dihydro-3H-1-thia-3,5,8-triazaacenaphthylene-2-carboxamide] |  | 6.4 |  |
| C=CC(=O)N1CC[C@@H](NC(=O)c2sc3nccc4c3c2NC(=O)N4c2cnc(CC(C)C)cc2C)C1 (single isomer, unassigned) [Example 756, (R)—N-(1-Acryloylpyrrolidin-3-yl)-5-(*R)-(6-isobutyl-4-methylpyridin-3-yl)-4-oxo-4,5-dihydro-3H-1-thia-3,5,8-triazaacenaphthylene-2-carboxamide] |  | <6 |  |
| C=CC(=O)N1C[C@H](NC(=O)c2sc3nccc4c3c2NC(=O)N4c2ccc(Oc3ccccc3)cc2C)[C@@H](OC)C1 (relative stereo) [Example 490, N-((3S,4S)-1-Acryloyl-4-methoxypyrrolidin-3-yl)-5-(*S)-(2-methyl-4-phenoxyphenyl)-4-oxo-4,5-dihydro-3H-1-thia-3,5,8-triazaacenaphthylene-2-carboxamide] | 7.7 |  |  |
| Cc1cc(Oc2ccccc2)ccc1N1C(=O)Nc2c(C(=O)N[C@@H]3CCCOC3)sc3nccc1c23 (single isomer, unassigned) [Example 307, (R)-5-(*R)-(2-Methyl-4-phenoxyphenyl)-4-oxo-N-(tetrahydro-2H-pyran-3-yl)-4,5-dihydro-3H-1-thia-3,5,8-triazaacenaphthylene-2-carboxamide] | 6.0 |  |  |
| C=CC(=O)N1CCC[C@@H](NC(=O)c2sc3nccc4c3c2NC(=O)N4c2ccc(CC(C)C)nc2C)C1 (single isomer, unassigned) [Example 792, (R)—N-(1-Acryloylpiperidin-3-yl)-5-(*S)-(6-isobutyl-2-methylpyridin-3-yl)-4-oxo-4,5-dihydro-3H-1-thia-3,5,8-triazaacenaphthylene-2-carboxamide] |  | 6.4 |  |
| Cc1cc(OC2CCOCC2)ccc1N1C(=O)Nc2c(C(=O)N[C@@H]3CCCN(C)C3)sc3nccc1c23 (single isomer, unassigned) [Example 343, (R)-5-(*R)-(2-Methyl-4-((tetrahydro-2H-pyran-4-yl)oxy)phenyl)-N-(1-methylpiperidin-3-yl)-4-oxo-4,5-dihydro-3H-1-thia-3,5,8-triazaacenaphthylene-2-carboxamide] | 5.3 |  |  |
| C=CC(=O)N1CCC[C@@H](NC(=O)c2sc3nccc4c3c2NC(=O)N4c2ccc(Oc3ccccc3)nc2C)C1 (single isomer, unassigned) [Example 661] |  | 8.3 |  |
| CCC(=O)N1CCC[C@@H](NC(=O)c2sc3nccc4c3c2NC(=O)N4c2cnc(CC(C)C)cc2C)C1 (single isomer, unassigned) [Example 765, (R)-5-(*S)-(6-Isobutyl-4-methylpyridin-3-yl)-4-oxo-N-(1-propionylpiperidin-3-yl)-4,5-dihydro-3H-1-thia-3,5,8-triazaacenaphthylene-2-carboxamide] |  | 6.5 |  |
| C=CC(=O)N1CC[C@@H](NC(=O)c2sc3nccc4c3c2NC(=O)N4c2ccc(Oc3ccccc3)cc2C)C1 (single isomer, unassigned) [Example 169, (R)—N-(1-Acryloylpyrrolidin-3-yl)-5-(*R)-(2-methyl-4-phenoxyphenyl)-4-oxo-4,5-dihydro-3H-1-thia-3,5,8-triazaacenaphthylene-2-carboxamide] |  |  | BTK_I_binding pIC50 (negative log of the IC50 in molar, 60 minutes incubation, 50 nM Tracer 236): 6.4 |
| C=CC(=O)N1CCC[C@@H](NC(=O)c2sc3nccc4c3c2NC(=O)N4c2ccc(OC(F)(F)F)cc2C)C1 (single isomer, unassigned) [Example 624, (R)—N-(1-Acryloylpiperidin-3-yl)-5-(*R)-(2-methyl-4-(trifluoromethoxy)phenyl)-4-oxo-4,5-dihydro-3H-1-thia-3,5,8-triazaacenaphthylene-2-carboxamide] |  | 5.9 |  |
| C=CC(=O)N1C[C@H](NC(=O)c2sc3nccc4c3c2NC(=O)N4c2ccc(Oc3ccccc3)cc2C)C[C@H](OC)C1 (relative stereo) [Example 482, N-((3R,5S)-1-Acryloyl-5-methoxypiperidin-3-yl)-5-(*S)-(2-methyl-4-phenoxyphenyl)-4-oxo-4,5-dihydro-3H-1-thia-3,5,8-triazaacenaphthylene-2-carboxamide] | 8.0 |  |  |
| C=CC(=O)N1CCC[C@@H](NC(=O)c2sc3nccc4c3c2NC(=O)N4c2cnc(OC3CCC3)cc2C)C1 (single isomer, unassigned) [Example 700, (R)—N-(1-Acryloylpiperidin-3-yl)-5-(*R)-(6-cyclobutoxy-4-methylpyridin-3-yl)-4-oxo-4,5-dihydro-3H-1-thia-3,5,8-triazaacenaphthylene-2-carboxamide] |  | 8.1 |  |
| C=C(Cl)C(=O)N1CCC[C@@H](NC(=O)c2sc3nccc4c3c2NC(=O)N4c2ccc(Oc3ccccc3)cc2C)C1 (single isomer, unassigned) [Example 366, (R)—N-(1-(2-Chloroacryloyl)piperidin-3-yl)-5-(*S)-(2-methyl-4-phenoxyphenyl)-4-oxo-4,5-dihydro-3H-1-thia-3,5,8-triazaacenaphthylene-2-carboxamide] | 7.1 |  |  |
| Cc1cc(Oc2ccccc2)ccc1N1C(=O)Nc2c(C(=O)N[C@@H]3CCCN(C#N)C3)sc3nccc1c23 (single isomer, unassigned) [Example 329, (R)—N-(1-Cyanopiperidin-3-yl)-5-(*R)-(2-methyl-4-phenoxyphenyl)-4-oxo-4,5-dihydro-3H-1-thia-3,5,8-triazaacenaphthylene-2-carboxamide] | 5.7 |  |  |
| Cc1cc(Oc2ccccc2)ccc1N1C(=O)Nc2c(C(=O)N[C@@H]3CCCN(C(=O)CN(C)C)C3)sc3nccc1c23 (single isomer, unassigned) [Example 287, (R)—N-(1-(2-(Dimethylamino)acetyl)piperidin-3-yl)-5-(*R)-(2-methyl-4-phenoxyphenyl)-4-oxo-4,5-dihydro-3H-1-thia-3,5,8-triazaacenaphthylene-2-carboxamide] | 6.2 |  |  |
| C=CC(=O)N1CCC[C@@H](NC(=O)c2sc3nccc4c3c2NC(=O)N4c2ccc(Oc3ccccc3)nc2C)C1 (single isomer, unassigned) [Example 690, (R)—N-(1-Acryloylpiperidin-3-yl)-5-(*R)-(2-methyl-6-phenoxypyridin-3-yl)-4-oxo-4,5-dihydro-3H-1-thia-3,5,8-triazaacenaphthylene-2-carboxamide] |  | 7.6 |  |
| C=CC(=O)N1CC[C@@H](NC(=O)c2sc3nccc4c3c2NC(=O)N4c2cnc(CC(C)C)cc2C)C1 (single isomer, unassigned) [Example 747, (R)—N-(1-Acryloylpyrrolidin-3-yl)-5-(*S)-(6-isobutyl-4-methylpyridin-3-yl)-4-oxo-4,5-dihydro-3H-1-thia-3,5,8-triazaacenaphthylene-2-carboxamide] |  | 7.5 |  |
| C=CC(=O)N1CCC[C@@H](NC(=O)c2sc3nccc4c3c2NC(=O)N4c2cnc(Oc3ccccc3)cc2C)C1 (single isomer, unassigned) [Example 691, (R)—N-(1-Acryloylpiperidin-3-yl)-5-(*R)-(4-methyl-6-phenoxypyridin-3-yl)-4-oxo-4,5-dihydro-3H-1-thia-3,5,8-triazaacenaphthylene-2-carboxamide] |  | 6.0 |  |
| C=CC(=O)N1CCC[C@@H](NC(=O)c2sc3nccc4c3c2NC(=O)N4c2ccc(CC(C)C)nc2C)C1 (single isomer, unassigned) [Example 815, (R)—N-(1-Acryloylpiperidin-3-yl)-5-(*R)-(6-isobutyl-2-methylpyridin-3-yl)-4-oxo-4,5-dihydro-3H-1-thia-3,5,8-triazaacenaphthylene-2-carboxamide] |  | <6 |  |
